Measurements: patent US9693564B2, “Water based antimicrobial composition using benzalkonium chloride and cocamidopropyl PG-dimonium chloride phosphate” (SAFEHANDS SOLUTIONS, LLC, priority 2011, dated 2017)

Tested on: Staphylococcus aureus
Experiment: Antimicrobial effectiveness testing (log reduction of bacteria, 15 seconds exposure)
Format: cell-based
Details: 15 seconds at 25±1° C., undiluted
Description: The tests were performed on broth cultures that were passed through at least three consecutive daily transfers but no more than ten daily transfers. The broth cultures were diluted with the appropriate broth to obtain an inoculum count of 6×10^8 to 1×10^9 CFU/ml (Mac Farland Standard ˜2.0 to 3.0). The test article was used undiluted. The exposure time and temperature was 15 seconds at 25±1° C., respectively. All tests involving the test article were conducted in triplicate. A 4.95 gram sample of the test article was placed in a sterile, screw-top 50 ml polyethylene tube at 25±1° C. The test article was inoculated with 0.05 ml of the test organism at the appropriate concentration. The tube contents were neutralized by the addition of 45 ml of Neutralizer (Tryptic or Trypticase Soy Broth (TSB) with 10% TWEEN 80, 3% Lecithin, 0.5% Sodium thiosulfate and 0.1% Histidine, pH 7.2±0.1) followed by vortexing. One ml of the neutralized sample (10^−1 dilution) was serially diluted in 10-fold steps to 10^−6 for the test article and to 10^−7 for the numbers control using tubes containing 9 ml of AOAC Neutralizer blanks. An inoculum count was determined by 10-fold serial dilutions to 10^−8 using tubes containing 9 ml of AOAC phosphate buffered dilution water. The dilutions were plated in duplicate on Letheen Agar, and plates were incubated in an inverted position for the appropriate time and at a temperature appropriate for the test organism. The test organism was a single species of Staphylococcus aureus.
Antimicrobial effectiveness was determined by calculating the log reduction of bacteria in the test sample. For comparison, the log reduction for a 0.02% CHX-gluconate solution is 0.5, the log reduction for a 0.13% BAC solution is 0.5, and the log reduction for a 1% cocamidopropyl PG-dimonium chloride phosphate solution is 2. When added together, the total log reduction for the three ingredients tested individually is 3.

## N=C(NCCCCCCNC(=N)NC(=N)Nc1ccc(Cl)cc1)NC(=N)Nc1ccc(Cl)cc1.O=C(O)[C@H](O)[C@@H](O)[C@H](O)[C@H](O)CO.O=C(O)[C@H](O)[C@@H](O)[C@H](O)[C@H](O)CO [CHX-gluconate, chlorhexidine gluconate]
0.02% solution
  log reduction: 0.5

## CCCCCCCCCCCC(=O)NCCC[N+](C)(C)CC(O)COP(=O)([O-])OCC(O)C[N+](C)(C)CCCNC(=O)CCCCCCCCCCC.[Cl-].[Cl-].[Na+] (stereo not drawn) [cocamidopropyl PG-dimonium chloride phosphate]
1% solution
  log reduction: 2

## benzalkonium chloride [BAC]
0.13% solution
  log reduction: 0.5
